Experimental findings from patent US4740233A, “Substituted 1,2,4-triazolo[1,5-a]-pyrimidine-2-sulfonamides and compositions and methods of controlling undesired vegetation and suppressing the nitrification of ammonium nitrogen in soil” (The Dow Chemical Company, priority 1986, dated 1988) are described below.

For the experiment, the system named is nitrification of ammonium nitrogen. In words: Suppression of nitrification of ammonium nitrogen in soil. The note with it: 27° C. As for the experimental part: A sufficient volume of water was added to 20 g of the soil in a wide-mouth, screw-cap, 4-ounce, glass bottle, such that the moisture content of the mixture was made equal to the 1/3 bar tension value for that soil. The mixture was thoroughly mixed before sealing. […] Acetone slows the rate of soil nitrification and its concentration must be carefully controlled. Single samples of each test chemical were incubated for two weeks at 27° C.
The experiment comprised the following types of samples:
The soil samples were analyzed as follows: Sufficient ammonium sulfate extracting solution was added to the sample, such that the total volume of added water was 50 ml (included water added during sample preparation). The capped mixture was shaken 10 minutes to solubilize nitrate and the soil particulates were allowed to settle. The nitrate concentration in the water phase was determined with a nitrate-specific ion electrode such as Orion Model 93-07.
The non-nitrate nitrogen remaining (% NH4 -N remaining) in the soil after two weeks (performance value) was calculated as follows: [formula]

For `CSc1ccccc1NS(=O)(=O)c1nc2ncccn2n1` [Compound 135], the “% NH4-N Remaining After 2 Weeks Incubation” value was 0% (0.01 ppm), 0% (0.1 ppm), 12% (1 ppm) and 100% (10 ppm).

Take `CSc1ccccc1NS(=O)(=O)c1nc2nc(C)ccn2n1` [Compound 142]: the “% NH4-N Remaining After 2 Weeks Incubation” value reads like this: (0.01 ppm) 0%; (0.1 ppm) 5%; (1 ppm) 62%; (10 ppm) 98%.

Take `COC(=O)c1cccc(C)c1NS(=O)(=O)c1nc2nc(C)ccn2n1` [Compound 146]: the “% NH4-N Remaining After 2 Weeks Incubation” value is, setting by setting: (0.06 ppm) 19%; (0.25 ppm) 48%; (1 ppm) 60%; (4 ppm) 79%.

As for `Cc1ccn2nc(S(=O)(=O)Nc3c(Cl)ccc(C)c3Cl)nc2n1` [Compound 147], the “% NH4-N Remaining After 2 Weeks Incubation” value amounted to 41% (0.06 ppm), 55% (0.25 ppm), 72% (1 ppm) and 87% (4 ppm).

For `Cc1ccn2nc(S(=O)(=O)Nc3c(C)cccc3Br)nc2n1` [Compound 148], the “% NH4-N Remaining After 2 Weeks Incubation” value reads like this: (0.6 ppm) 69%; (1.25 ppm) 75%; (2.5 ppm) 81%; (5 ppm) 89%; (10 ppm) 93%.

Regarding `Cc1ccn2nc(S(=O)(=O)Nc3ccccc3[S+]([O-])C(F)(F)C(F)F)nc2n1` (centres unmarked) [Compound 149], the “% NH4-N Remaining After 2 Weeks Incubation” value is 0% (0.6 ppm); 0% (1.25 ppm); 5% (2.5 ppm); 26% (5 ppm); 62% (10 ppm).

With `CSc1cccc(C)c1NS(=O)(=O)c1nc2nc(C)ccn2n1` [Compound 150], the “% NH4-N Remaining After 2 Weeks Incubation” value (0.06 ppm) is reported as 83%, the “% NH4-N Remaining After 2 Weeks Incubation” value (0.25 ppm) came out at 74%, the “% NH4-N Remaining After 2 Weeks Incubation” value (1 ppm) is given as 91% and the “% NH4-N Remaining After 2 Weeks Incubation” value (4 ppm) amounted to 93%.

On to `COC(=O)c1cccc(F)c1NS(=O)(=O)c1nc2nc(C)ccn2n1` [Compound 159], for which the “% NH4-N Remaining After 2 Weeks Incubation” value was 49% (0.06 ppm), 56% (0.25 ppm), 80% (1 ppm) and 94% (4 ppm).

In the case of `Cc1nc2nc(S(=O)(=O)Nc3c(Cl)cccc3Cl)nn2c(C)c1Cl` [Compound 200], the “% NH4-N Remaining After 2 Weeks Incubation” value (0.06 ppm) is listed as 0%, the “% NH4-N Remaining After 2 Weeks Incubation” value (0.25 ppm) is reported as 31%, the “% NH4-N Remaining After 2 Weeks Incubation” value (1 ppm) was 50% and the “% NH4-N Remaining After 2 Weeks Incubation” value (4 ppm) is on record as 60%.

Regarding `CCOc1cnc2nc(S(=O)(=O)Nc3c(C)cccc3Cl)nn2c1` [Compound 202], the “% NH4-N Remaining After 2 Weeks Incubation” value reads like this: (0.06 ppm) 0%; (0.25 ppm) 0%; (1 ppm) 0%; (4 ppm) 32%.

`Cc1c(C(=O)O)cnc2nc(S(=O)(=O)Nc3c(Cl)cccc3Cl)nn12` [Compound 224]: the “% NH4-N Remaining After 2 Weeks Incubation” value (0.06 ppm) came to 1%, the “% NH4-N Remaining After 2 Weeks Incubation” value (0.25 ppm) is reported as 0%, the “% NH4-N Remaining After 2 Weeks Incubation” value (1 ppm) came to 27% and the “% NH4-N Remaining After 2 Weeks Incubation” value (4 ppm) stood at 63%.

For `O=[N+]([O-])c1ccc(-c2cnc3nc(S(=O)(=O)Nc4c(Cl)cccc4Cl)nn3c2)cc1` [Compound 226], the “% NH4-N Remaining After 2 Weeks Incubation” value is, setting by setting: (0.06 ppm) 2%; (0.25 ppm) 17%; (1 ppm) 42%; (4 ppm) 69%.
